Results as given in patent publication US12686665B2, “Bicyclic fused ring derivative or salt thereof and pharmaceutical composition comprising same” (YUHAN CORPORATION, priority 2021, dated 2026).
Where a name gives a salt, the structure may show the parent alone.

Molecular target: T1, recombinant human Lysyl Oxidase-Like 2 (LOXL2) (Homo sapiens, UniProt Q9Y4K0)
T1 construct: purchased R&D systems
T1 sequence (Q9Y4K0 26-774): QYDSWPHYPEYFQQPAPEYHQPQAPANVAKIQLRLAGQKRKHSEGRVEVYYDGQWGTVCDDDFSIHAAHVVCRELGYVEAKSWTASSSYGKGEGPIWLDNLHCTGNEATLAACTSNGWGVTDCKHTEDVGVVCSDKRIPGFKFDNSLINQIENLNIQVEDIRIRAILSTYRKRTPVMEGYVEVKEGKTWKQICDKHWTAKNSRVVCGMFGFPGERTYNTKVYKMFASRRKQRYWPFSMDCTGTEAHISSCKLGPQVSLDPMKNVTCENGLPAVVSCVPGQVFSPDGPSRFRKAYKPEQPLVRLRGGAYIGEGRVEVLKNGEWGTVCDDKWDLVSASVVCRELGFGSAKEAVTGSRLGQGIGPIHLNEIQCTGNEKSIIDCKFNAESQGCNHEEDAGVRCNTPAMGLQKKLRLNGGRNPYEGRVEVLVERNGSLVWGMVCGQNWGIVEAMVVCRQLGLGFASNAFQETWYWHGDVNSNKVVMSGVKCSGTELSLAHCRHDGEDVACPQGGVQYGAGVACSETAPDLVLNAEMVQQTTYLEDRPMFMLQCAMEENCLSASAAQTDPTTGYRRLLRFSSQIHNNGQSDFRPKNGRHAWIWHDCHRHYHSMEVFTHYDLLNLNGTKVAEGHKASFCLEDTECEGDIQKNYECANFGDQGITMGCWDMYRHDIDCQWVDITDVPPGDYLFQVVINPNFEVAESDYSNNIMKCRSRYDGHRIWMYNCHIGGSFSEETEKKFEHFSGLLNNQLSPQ
Assay: Amplex Red HRP-coupled amine oxidase assay, recombinant human LOXL2
Type: biochemical
Details: 60 min incubation with enzyme at 37° C., putrescine substrate, read-out: Inhibitory activity (IC50, nM) human LOXL2
Procedure: The activities of the compounds according to the present invention against recombinant human Lysyl Oxidase-Like 2 (recombinant human LOXL2, R&D systems) were evaluated by measuring the levels of hydrogen peroxide in the HRP (horseradish peroxidase) coupled reactions, with the Amplex Red Hydrogen Peroxide Assay Kit (Molecular Probes, Invitrogen, USA). The tests were carried out at 37° C., and putrescine was used as a substrate. In the HRP coupling reaction, the oxidation of 10-acetyl-3,7-dihydroxyphenoxazine (Amplex Red reagent) by hydrogen peroxide generates a fluorescent product, i.e., resorufin. Briefly, the test compounds were dissolved in dimethyl sulfoxide (DMSO) at a concentration of 20 mM. Dose-response measurements were carried out by serial dilutions in DMSO to generate a six-point curve. The upper concentration was adjusted according to the potency of the compound, and then diluted with the reaction buffer to obtain a final DMSO concentration of 1%. Purified human LOXL2 in 50 mM sodium phosphate buffer (pH7.4) was added to each well of a 96 well black plate. The test compounds dissolved in DMSO were incubated with the human LOXL2 enzyme at 37° C. for 60 minutes. After the incubation for 60 minutes, a reaction mixture containing 400 μM Amplex Red reagent, 30 mM putrescine, and 2 U/mL HRP in 50 mM sodium phosphate buffer (pH 7.4) was added to each well. Fluorescence was measured with a microplate reader (Flexstation3, Molecular Devices), under the conditions of excitation at 530 nm and emission at 590 nm, 1 hour after the addition of the mixture. Inhibition by each compound was measured as % reduction in signal, compared to the control without an inhibitor (diluted DMSO only). The data were fixed to a four-variable logistic model, and […] values were calculated using the GraphPad Prism program.

Structure (SMILES) | IC50 [nM]
CCN(CC)S(=O)(=O)c1ccc(OC)c(-c2cc(C(=O)OC)cc3c2ncn3C/C(F)=C/CN)c1 [Example 26, methyl (Z)-1-(4-amino-2-fluorobut-2-en-1-yl)-4-(5-(N,N-diethylsulfamoyl)-2-methoxyphenyl)-1H-benzo[d]imidazol-6-carboxylate hydrochloride] | 62.5
COC(=O)c1cc(-c2ccc(OC)c(S(=O)(=O)NC(C)C)c2)c2ncn(C/C(F)=C/CN)c2c1 [Example 28, methyl (Z)-1-(4-amino-2-fluorobut-2-en-1-yl)-4-(3-(N-isopropylsulfamoyl)-4-methoxyphenyl)-1H-benzo[d]imidazol-6-carboxylate hydrochloride] | 54.2
COC(=O)c1cc(-c2cccc(S(=O)(=O)NCc3ccc(OC)cc3)c2)c2ncn(C/C(F)=C/CN)c2c1 [Example 32, methyl (Z)-1-(4-amino-2-fluorobut-2-en-1-yl)-4-(3-(N-(4-methoxybenzyl)sulfamoyl)phenyl)-1H-benzo[d]imidazol-6-carboxylate hydrochloride] | 60.1
COC(=O)c1cc(-c2cccc(S(=O)(=O)N3CCCCC3)c2)c2ncn(C/C(F)=C/CN)c2c1 [Example 33, methyl (Z)-1-(4-amino-2-fluorobut-2-en-1-yl)-4-(3-(piperidin-1-ylsulfonyl)phenyl)-1H-benzo[d]imidazol-6-carboxylate hydrochloride] | 55.6
CCN(CC)S(=O)(=O)c1cccc(-c2cc(C(=O)OC)cc3c2ncn3C/C(F)=C/CN)c1 [Example 37, methyl (Z)-1-(4-amino-2-fluorobut-2-en-1-yl)-4-(3-(N,N-diethylsulfamoyl)phenyl)-1H-benzo[d]imidazol-6-carboxylate hydrochloride] | 70.3
NC/C=C(\F)Cn1nnc2c(-c3cccc(S(=O)(=O)N4CCCC4)c3)cccc21 [Example 104, (Z)-3-fluoro-4-(4-(3-(pyrrolidin-1-ylsulfonyl)phenyl)-1H-benzo[d][1,2,3]triazol-1-yl)but-2-en-1-amine hydrochloride] | 51
CS(=O)(=O)c1cccc(-c2cccc3c2nnn3C/C(F)=C/CN)c1 [Example 106, (Z)-3-fluoro-4-(4-(3-(methylsulfonyl)phenyl)-1H-benzo[d][1,2,3]triazol-1-yl)but-2-en-1-amine hydrochloride] | 94
COc1ccc(-c2cccc3c2nnn3C/C(F)=C/CN)cc1S(=O)(=O)NC(C)C [Example 109, (Z)-5-(1-(4-amino-2-fluorobut-2-en-1-yl)-1H-benzo[d][1,2,3]triazol-4-yl)-N-isopropyl-2-methoxybenzenesulfonamide hydrochloride] | 72
NC/C=C(\F)Cn1nnc2c(-c3cccc(S(=O)(=O)NC4CC4)c3)cccc21 [Example 110, (Z)-3-(1-(4-amino-2-fluorobut-2-en-1-yl)-1H-benzo[d][1,2,3]triazol-4-yl)-N-cyclopropylbenzenesulfonamide hydrochloride] | 60
COc1ccc(S(=O)(=O)N2CCN(C)CC2)cc1-c1cccc2c1nnn2C/C(F)=C/CN [Example 113, (Z)-3-fluoro-4-(4-(2-methoxy-5-((4-methylpiperazin-1-yl)sulfonyl)phenyl)-1H-benzo[d][1,2,3]triazol-1-yl)but-2-en-1-amine hydrochloride] | 65
COC(=O)c1cc(-c2ccc(OC)c(S(=O)(=O)N(C)C)c2)c2nnn(C/C(F)=C/CN)c2c1 [Example 114, methyl (Z)-1-(4-amino-2-fluorobut-2-en-1-yl)-4-(3-(N,N-dimethylsulfamoyl)-4-methoxyphenyl)-1H-benzo[d][1,2,3]triazol-6-carboxylate hydrochloride] | 18.6
COC(=O)c1cc(-c2cccc(S(=O)(=O)N3CCC(F)(F)C3)c2)c2nnn(C/C(F)=C/CN)c2c1 [Example 115, methyl (Z)-1-(4-amino-2-fluorobut-2-en-1-yl)-4-(3-((3,3-difluoropyrrolidin-1-yl)sulfonyl)phenyl)-1H-benzo[d][1,2,3]triazol-6-carboxylate hydrochloride] | 58.7
